Test: relative stability and turnover of the crystalline forms
Format: physicochemical
Details: for thermodynamic stability of the crystalline form: solid form, Form II statement applies to the 5-70° C. range
Source text: Alternatively, Form I can also be produced by solvent/anti solvent crystallizations where the solvent is (but limited not) DMSO or acetone and the antisolvent is (but not limited to) water, hexanes or heptanes. Form I can also be produced by slow evaporation of clear solutions of crude Example 1 in volatile solvents where the volatile solvent is (but not limited to) dichloromethane, acetone, or acetonitrile. Form I was characterized using PXRD, DSC, TGA and SCXRD.
Form II can be produced by recrystallization of Form I in a variety of organic solvents or mixtures thereof where the solvent(s) is (are) (but not limited to) ethyl acetate, isopropanol, acetone, dichloromethane, acetonitrile, tetrahydrofuran, water, ethanol, 2-methyl tetrahydrofuran, toluene, methanol, dimethyl formamide or cyclopentyl methyl ether. Form II was characterized using PXRD, DSC and TGA.
Type C can be produced by recrystallization of either Form I, Form II or Form III in solvent/antisolvent systems where the solvent is (but not limited to) acetone or dichloromethane and the antisolvent is (but not limited to) n-hexane or n-heptane.
Form III was produced by recrystallization of Type C in the solid state at 150° C. and under a N2 flow. Form III can also be formed in some instances from solution in acetone/n-heptane crystallizations. […] Form III was characterized using PXRD, DSC, TGA and SCXRD.

SMILES | thermodynamic stability of the crystalline form | lifetime in solution before turnover into a more thermodynamically stable phase (in solution)
COC(=O)NC[C@H]1CN(c2cc(F)c(N3CCS(=O)(=O)CC3)c(F)c2)C(=O)O1 [Form III, methyl ({(5S)-3-[4-(1,1-dioxo-1λ^6-thiomorpholin-4-yl)-3,5-difluorophenyl]-2-oxo-1,3-oxazolidin-5-yl}methyl)carbamate] | Quick turnovers to more thermodynamically stable phases Form I or Form II are readily observed within minutes to hours | –
COC(=O)NC[C@H]1CN(c2cc(F)c(N3CCS(=O)(=O)CC3)c(F)c2)C(=O)O1 [Form I, methyl({(5S)-3-[4-(1,1-dioxo-1λ^6-thiomorpholin-4-yl)-3,5-difluorophenyl]-2-oxo-1,3-oxazolidin-5-yl}methyl)carbamate] | kinetic phase and will recrystallize into Form II with time | –
COC(=O)NC[C@H]1CN(c2cc(F)c(N3CCS(=O)(=O)CC3)c(F)c2)C(=O)O1 [Type C, methyl ({(5S)-3-[4-(1,1-dioxo-1λ^6-thiomorpholin-4-yl)-3,5-difluorophenyl]-2-oxo-1,3-oxazolidin-5-yl}methyl)carbamate] | highly metastable | a few hours
COC(=O)NC[C@H]1CN(c2cc(F)c(N3CCS(=O)(=O)CC3)c(F)c2)C(=O)O1 [Form II, methyl ({(5S)-3-[4-(1,1-dioxo-1λ^6-thiomorpholin-4-yl)-3,5-difluorophenyl]-2-oxo-1,3-oxazolidin-5-yl}methyl)carbamate] | most thermodynamically stable form in the 5-70 °C range | –
